# “And” between values parts separate entries of the source, which are not always exact repeats. Equal entries are not always repeated. Where two headings read alike, the source gives them in different places.
# Columns and labels:
# [1] = test system: AChE; design: method as in earlier work; details: ref 40 (Ali et al.); read-out: AChEi (means ± SEMs of triplicate experiments); cited from earlier work
# [2] = target: T1, AChE from electric eel (Electrophorus electricus, UniProt O42275); assay: biochemical
# T1 construct: purchased Sigma-Aldrich, Milan, Italy
# Procedure: (§1) A modified protocol of Ellman’s spectrophotometric assay [54] adapted to a 96-well plate procedure was followed as previously described [39]. Incubation samples of AChE from electric eel or BChE from equine serum (eeAChE, 463 U/mg, and esBChE, 13 U/mg, Sigma-Aldrich, Milan, Italy) were set in phosphate buffer (pH 8.0) containing 0.5 mM 5,5′-dithiobis(2-nitrobenzoic acid) (DTNB; Sigma-Aldrich, Milan, Italy) as the chromophoric reagent alone or in the presence of the inhibitor (10 μM). Incubations were carried out in clear flat-bottomed, 96-well plates (Greiner Bio-One GmbH, Frickenhausen, Germany) in duplicate. […] After incubation for 20 min at 25 °C, 0.5 mM acetyl- or butyrylthiocholine iodide (Sigma-Aldrich, Milan, Italy) were added as the substrates and AChE-catalyzed hydrolysis was followed by measuring the increase of absorbance at 412 nm for 5 min at 25 °C in a Tecan Infinite M1000 Pro multiplate reader (Tecan, Cernusco S.N., Italy). Inhibition values and IC50s were calculated with a GraphPad Prism as the mean of three independent experiments and are expressed as mean ± SEM.
# [3] = target: T2, BChE from equine serum (Equus caballus, UniProt P81908); assay: BChE inhibition, modified Ellman's spectrophotometric assay; assay type: biochemical; details: for esBChEi %I (10μM): percentage of inhibition at 10 μM inhibitor, equine serum BChE
# T2 construct: purchased Sigma-Aldrich, Milan, Italy; host or cells: equine serum
# Procedure: as §1
# [4] = Antioxidant activity (DPPH radical scavenging assay); details: DPPH 100 µM in methanol, 30 min
# Procedure: The DPPH assay is routinely practiced for the assessment of the free radical scavenging potential of an antioxidant molecule.
# The DPPH radical scavenging assay was performed in 96-well microplates according to the method reported by Blois with some modifications.
# A freshly prepared solution of DPPH in methanol (100 µM final concentration) was added to test compounds methanolic solution. The mixtures were shaken vigorously and left to stand in the dark for 30 min at room temperature. Then absorbance was read at 520 nm using a spectrophotometric plate reader (Victor 3 Perkin-Elmer).
# The antioxidant activity was determined as the RSA% (radical scavenging activity) and calculated using the following equation: RSA% = 100 × [(Ao − Ai)/Ao] where Ao and Ai are the DPPH absorbance in the absence or in the presence of antioxidants, respectively. Different sample concentrations were used in order to obtain anti-radical curves for calculating the EC50 values. Anti-radical curves were plotted referring to log concentration on the x-axis and their RSA% on the y-axis. The EC50 values and statistical analyses were processed using the GraphPad Prism 5 software (San Diego, CA, USA).
# Values of all parameters are expressed as mean ± SEM of at least three independent measurements in triplicate.
# [5] = target: T3, Aβ1–40 (Homo sapiens, UniProt P05067); assay: Inhibition of Aβ1–40 aggregation (ThT fluorescence); assay type: biochemical; details: Aβ1–40 30 μM; for IC50: 2 h at 25 °C, ThT fluorescence; for iAβ %I (100μM): percentage of inhibition at 100 μM inhibitor
# T3 construct: diluting Aβ1–40 (EZBiolab, Carmel, IN, USA); purchased EZBiolab, Carmel, IN, USA
# Procedure: The spectrofluorimetric assays measured ThT fluorescence in the presence of Aβ and were done as previously described [39]. Co-incubation samples were prepared in 96-well black, non-binding microplates (Greiner Bio-One GmbH, Frickenhausen, Germany) by diluting Aβ1–40 (EZBiolab, Carmel, IN, USA) alone or in the presence of the inhibitor to a final concentration of 30 μM and 100 μM, respectively, in PBS (pH 7.4) containing 10% DMSO and 2% 1,1,1,3,3,3-hexafluoro-2-propanol (HFIP). After 2 h of incubation at 25 °C, 25 μM ThT solution in phosphate buffer (pH 6.0) was added and fluorescence was read in a multi-plate reader Infinite M1000 Pro (Tecan, Cernusco S.N., Italy). […] Assays were run in triplicate. Values are expressed as mean ± SEM.
# [6] = test system: AChE; design: method as in PMID 20692939; details: cited from earlier work
# [7] = test system: BChE; design: method as in PMID 28286309; details: at 100 μg/mL; cited from earlier work
# [8] = test system: Aβ; design: method as in PMID 21261647; details: read-out: Inhibitory activity of Aβ aggregation IC50; cited from earlier work
# [9] = test system: AChE; design: method as in PMID 28286309; details: at 100 μg/mL; cited from earlier work
# [10] = acetylcholinesterase from electric eel, mean ± SEM, read-out: eeAChEi IC50 (μM ± SEM)
# [11] = butyrylcholinesterase from equine serum, mean ± SEM, i.a. = not active
# T1 sequence (O42275 24-633): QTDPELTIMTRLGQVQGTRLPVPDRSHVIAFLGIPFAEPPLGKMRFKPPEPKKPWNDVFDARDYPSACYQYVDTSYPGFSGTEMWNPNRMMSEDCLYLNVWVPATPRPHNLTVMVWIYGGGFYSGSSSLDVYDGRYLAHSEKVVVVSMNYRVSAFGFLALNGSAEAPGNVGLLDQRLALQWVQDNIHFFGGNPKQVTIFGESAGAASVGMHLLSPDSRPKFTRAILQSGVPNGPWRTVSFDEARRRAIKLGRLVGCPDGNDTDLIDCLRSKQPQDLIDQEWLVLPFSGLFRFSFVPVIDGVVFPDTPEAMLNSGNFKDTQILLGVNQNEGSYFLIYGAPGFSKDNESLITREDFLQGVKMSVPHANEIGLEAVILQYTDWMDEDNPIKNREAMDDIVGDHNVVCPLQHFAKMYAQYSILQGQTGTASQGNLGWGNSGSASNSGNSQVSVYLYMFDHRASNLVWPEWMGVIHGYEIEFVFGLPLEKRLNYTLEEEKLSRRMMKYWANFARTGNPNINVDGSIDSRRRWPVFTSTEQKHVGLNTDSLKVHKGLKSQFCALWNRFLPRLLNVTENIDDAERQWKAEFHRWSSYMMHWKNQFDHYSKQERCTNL
# T2 sequence (P81908 whole entry): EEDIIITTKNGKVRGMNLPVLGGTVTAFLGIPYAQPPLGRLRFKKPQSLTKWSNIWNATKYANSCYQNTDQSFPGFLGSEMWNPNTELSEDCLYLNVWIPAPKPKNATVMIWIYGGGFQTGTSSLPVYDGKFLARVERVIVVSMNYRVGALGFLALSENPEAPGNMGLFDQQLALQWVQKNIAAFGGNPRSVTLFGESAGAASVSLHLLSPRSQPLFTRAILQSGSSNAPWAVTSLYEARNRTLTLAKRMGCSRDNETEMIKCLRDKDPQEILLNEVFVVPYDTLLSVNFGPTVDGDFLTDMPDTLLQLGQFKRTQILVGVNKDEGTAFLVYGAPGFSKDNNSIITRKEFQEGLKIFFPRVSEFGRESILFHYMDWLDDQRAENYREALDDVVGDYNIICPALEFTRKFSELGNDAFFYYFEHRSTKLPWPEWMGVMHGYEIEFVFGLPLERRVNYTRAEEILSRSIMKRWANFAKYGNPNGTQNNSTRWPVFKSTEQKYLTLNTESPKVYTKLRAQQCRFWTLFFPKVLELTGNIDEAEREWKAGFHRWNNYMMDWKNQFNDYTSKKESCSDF
# T3 sequence (P05067 672-711): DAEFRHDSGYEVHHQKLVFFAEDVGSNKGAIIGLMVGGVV
molecule,measurement,setting,value
O=Cc1cc2ccc(=O)oc2cc1O [6-formyl-umbelliferone],IC50,[1],16.7 ± 1.62 µM
O=Cc1c(O)ccc2ccc(=O)oc12 [8-formyl-umbelliferon],IC50,[1],19.1 ± 0.57 µM
"Oc1c(I)cc(Cl)c2cccnc12 [Clioquinol, reference compound]",IC50,[2]; [10],8.12 ± 1 µM
same,esBChEi %I (10μM),[3],%I (10μM): 10 ± 1%
same,Antioxidant Activity EC50 (μmol/µmol of DPPH ± SEM),[4],0.74 ± 0.04 μmol/µmol of DPPH
same,IC50,[5]; read-out: iAβ IC50 (μM ± SEM),7.6 ± 0.8 µM
"CC[C@H](C)[C@@H]1NC(=O)C(C(C)=O)=C1O [Compound 1, Tenuazonic acid]",IC50,[2],8.13 ± 0.08 µM
same,Antioxidant Activity EC50 (μmol/µmol of DPPH ± SEM),[4],2.6 μmol/µmol of DPPH and 2.6 ± 0.2 μmol/µmol of DPPH
same,IC50,[5]; iAβ IC50 (μM ± SEM),~100 µM
same,iAβ %I (100μM),[5],%I (100μM): 50 ± 8
"C/C=C/c1cc2c(c(=O)o1)[C@@H](O)[C@@H](O)[C@H](C)O2 [Compound 2, 2-epi-Radicinol]",IC50,[2]; [10],6.86 ± 0.67 µM
same,esBChEi IC50 (μM ± SEM),[3]; [11],i.a.
same,Antioxidant Activity EC50 (μmol/µmol of DPPH ± SEM),[4],> 100 μmol/µmol of DPPH
same,IC50,[5]; read-out: iAβ IC50 (μM ± SEM),74 ± 1 µM
"COc1c(C)c2c(c(O)c1C/C=C(\C)CCC(=O)O)C(=O)OC2 [Compound 3, Mycophenolic acid]",IC50,[2]; [10],7.84 ± 0.72 µM
same,esBChEi IC50 (μM ± SEM),[3]; [11],i.a.
same,Antioxidant Activity EC50 (μmol/µmol of DPPH ± SEM),[4],14.7 μmol/µmol of DPPH and 14.7 ± 3.4 μmol/µmol of DPPH
same,iAβ %I (100μM),[5],%I (100μM): 38 ± 3
"COc1cc(O)c2c(c1)C[C@@H](C)OC2=O [Compound 4, 6-Methoxymellein]",IC50,[2]; [10],11.4 ± 0.8 µM
same,esBChEi %I (10μM),[3],%I (10μM): 10 ± 3%
same,Antioxidant Activity EC50 (μmol/µmol of DPPH ± SEM),[4],> 100 μmol/µmol of DPPH
same,IC50,[5]; read-out: iAβ IC50 (μM ± SEM),98 ± 3 µM
"C/C=C/c1cc2c(c(=O)o1)C(=O)[C@@H](O)[C@H](C)O2 [Compound 5, Radicinin]",IC50,[2]; [10],8.96 ± 0.97 µM
same,esBChEi %I (10μM),[3],%I (10μM): 6 ± 1%
same,Antioxidant Activity EC50 (μmol/µmol of DPPH ± SEM),[4],>100 μmol/µmol of DPPH
same,iAβ %I (100μM),[5],%I (100μM): 44 ± 3
"COC(=O)/C=C/c1ncn(C)c1CC=C(C)C [Compound 6, Fungerin]",IC50,[2]; [10],86 ± 15 µM
same,IC50,"[3]; butyrylcholinesterase from equine serum, mean ± SEM, i.a. = not active, read-out: esBChEi IC50 (μM ± SEM)",1.75 ± 0.59 µM
same,Potency on BChE compared to that on AChE,[3]; esBChE vs eeAChE IC50,about 50 times
same,Antioxidant Activity EC50 (μmol/µmol of DPPH ± SEM),[4],>100 μmol/µmol of DPPH
same,iAβ %I (100μM),[5],%I (100μM): 33 ± 9
same,Activity as an AChE inhibitor,[6],medium-high micromolar range
COc1ccc2c3c1O[C@H]1C[C@@H](O)C=C[C@@]31CCN(C)C2 [Galantamine],Percentage of inhibition against BChE,[7],81.93 ± 2.52%
"O=C(O)c1cc(O)c(O)c(O)c1 [Gallic acid, reference compound]",Antioxidant Activity EC50 (μmol/µmol of DPPH ± SEM),[4],0.054 ± 0.004 μmol/µmol of DPPH
"O=c1c(O)c(-c2ccc(O)c(O)c2)oc2cc(O)cc(O)c12 [Quercetin, reference compound]",IC50,[5]; read-out: iAβ IC50 (μM ± SEM),0.82 ± 0.07 µM
Oc1ccc(/C=C/c2cc(O)cc3c2[C@H](c2cc(O)cc(O)c2)[C@@H](c2ccc(O)c(O)c2)O3)cc1 [scirpusin A],IC50,[8],700 ± 300 nM
pteryxin,Percentage of inhibition against AChE,[9],9.30 ± 1.86%
same,Percentage of inhibition against BChE,[7],91.62 ± 1.53%
ε-viniferin glucoside,IC50,[8],200 ± 300 nM
